From patent publication US4529549A, “Spergualin-related compounds and process for the preparation thereof” (Zaidan Hojin Biseibutsu Kagaku Kenkyu Kai, priority 1982, dated 1985)
Values after ≈ are worked out from the molar mass of the structure shown. Where a name gives a salt, the structure may show the parent alone. Read-outs that look alike come from different tables or passages of the source.

Key:
Bacillus subtilis PCI219 = assay: Growth-inhibiting action on Bacillus subtilis (agar plate MIC); format: cell-based; conditions: nutrient agar, 20 hours at 37° C.
Method: Each of the compounds of this invention was dissolved in nutrient agar media to final concentrations of 100, 50, 25, 12.5, 6.25, 3.13 and 1.56 μg/ml, to prepare agar plates for testing. Bacillus subtilis PCI219 was adjusted to a content of 1×10^6 viable cells/ml, in a culture broth, and a loopful of the broth was applied onto the agar plates. The plates were incubated for 20 hours at 37° C. under stationary conditions, and observed for the formation of colonies of Bacillus subtilis. The lowest of the concentrations at which no colonies were formed was taken to be minimum inhibitory concentration (MIC).

[1] = Stability of the compounds in aqueous solutions (HPLC residual content); format: physicochemical; conditions: for remaining at 12 h / remaining at 24 h / remaining at 48 h / remaining at 72 h / remaining at 120 h / remaining at 168 h: water; for Residual content (%) of the compound in an aqueous solution: 0.5 (w/w)% in water, 40°±1° C., initial content = 100%
Method: Each of the compounds of this invention was dissolved in water to a concentration of 0.5 (w/w)%. The aqueous solution was maintained at 40°±1° C., and sampled at certain time intervals. Each sample was subjected to high-performance liquid chromatographic analysis to measure the area of the peak of the compound at each sampling time, and to calculate the ratio of the area of the peak after the indicated period of time to that at the first sampling time. The results of the calculation were used to determine the contents (%) of the compound of this invention in the aqueous solution after the indicated periods of time, with the initial content of said compound set at 100%.

[2] = test system: mouse leukemia L1210 cells; assay: In vitro proliferation-inhibiting action on mouse leukemia L1210 cells; format: cell-based; conditions: 48 hours at 37° C.
Method: Leukemia L1210 cells (1×10^5 /0.2 ml) were transplanted to female DBA/2 mice intraperitoneally. four days later, the ascitic fluid was collected and centrifuged to obtain proliferated L1210 cells. The L1210 cells collected were added to RPMI1640 medium containing bovine fetal serum and 2-mercaptoethanol, to obtain a suspension of L1210 cells having a final concentration of 5×10^4 cells/0.9 ml. Each of the compounds of this invention was dissolved in said culture medium to prepare solutions with final concentrations ranging from 0.062 to 100 μg/ml. 0.9 ml of the L1210 cell suspension and 0.1 ml of each test solution were mixed in petri dishes, and incubated for 48 hours at 37° C. in an incubator under an atmosphere of carbon dioxide gas. The number of L1210 cells was counted before and after the incubation, and that concentration of the compound which inhibited the proliferation of L1210 cells by 50% of the control's proliferation was determined (IC50).

[3] = Bacillus subtilis, PCI219, read-out: MIC

Compound	MIC (Bacillus subtilis PCI219; [3]) [µg/mL]	remaining at 12 h [1] [%]	remaining at 24 h [1] [%]	remaining at 48 h [1] [%]	remaining at 72 h [1] [%]	remaining at 120 h [1] [%]	remaining at 168 h [1] [%]	IC50 [2] [µg/mL]	MIC (Bacillus subtilis PCI219) [µg/mL]	Residual content (%) of the compound in an aqueous solution ([1]; 12 hr) [%]	Residual content (%) of the compound in an aqueous solution ([1]; 24 hr) [%]	Residual content (%) of the compound in an aqueous solution ([1]; 48 hr) [%]	Residual content (%) of the compound in an aqueous solution ([1]; 72 hr) [%]	Residual content (%) of the compound in an aqueous solution ([1]; 120 hr) [%]	Residual content (%) of the compound in an aqueous solution ([1]; 168 hr) [%]
N=C(N)NCCCCCCC(=O)NC(CCO)C(=O)NCCCCNCCCN (racemic) [Compound 18]	100 (≈ 241 µM)	100	99.5	99.7	99.3	99.7	99.5	150 (≈ 361 µM)							
N=C(N)NCCCC[C@H](O)CC(=O)N[C@@H](CO)C(=O)NCCCCNCCCN [Compound 3, 10-[N--(7-guanidino-3(S)--hydroxyheptanoyl)-L-seryl]-1,5,10-triazadecane trihydrochloride]	6.25	99.3	99.5	100	99.6	99.7	100	0.95							
N=C(N)NCCCCCCC(=O)N[C@H](CO)C(=O)NCCCCNCCCN [Compound 4, 10-[N--(7-guanidinoheptanoyl)-D-seryl]-1,5,10-triazadecane trihydrochloride]	12.5	101	100	100	99.7	99.6	100	3.6							
C[C@H](NC(=O)CCCCCCNC(=N)N)C(=O)NCCCCNCCCN [Compound 5, 10-[N--(7-guanidinoheptanoyl)-L-alanyl]-1,5,10-triazadecane trihydrochloride]	25	99.8	99.8	100	99.6	99	99.9	37							
N=C(N)NCCCCCCC(=O)NCCC(=O)NCCCCNCCCN [Compound 6, 10-[N--(7-guanidinoheptanoyl)-β-alanyl]-1,5,10-triazadecane trihydrochloride]	25	100	100	99.6	99.6	99.9	100	0.84							
N=C(N)NCCCCCCC(=O)NCCCC(=O)NCCCCNCCCN [Compound 7, 10-[N--(7-guanidinoheptanoyl)-γ-aminobutanoyl]-1,5,10-triazadecane trihydrochloride]	25	99.9	100	99.8	99.9	100	99.8	1.9							
N=C(N)NCCCCCCC(=O)N1CCC[C@H]1C(=O)NCCCCNCCCN [Compound 8, 10-[N--(7-guanidinoheptanoyl)-L-prolyl]-1,5,10-triazadecane trihydrochloride]	> 100	100	100	99.6	99.8	99.8	100								
CC(C)C[C@H](NC(=O)CCCCCCNC(=N)N)C(=O)NCCCCNCCCN [Compound 9, 10-[N--(7-guanidinoheptanoyl)-L-leucyl]-1,5,10-triazadecane trihydrochloride]	> 100	99.7	99.9	99.8	100	100	99.9	70							
N=C(N)NCCCCCCC(=O)N[C@@H](CC(=O)O)C(=O)NCCCCNCCCN [Compound 10, 10-[N--(7-guanidinoheptanoyl)-L-asparthyl]-1,5,10-triazadecane trihydrochloride]	> 100	99.9	99.4	99.8	100	99.8	99.9	130							
Cl.Cl.Cl.N=C(N)NCCCCCCC(=O)N[C@@H](CCC(N)=O)C(=O)NCCCCNCCCN [Compound 11, 10-[N--(7-guanidinoheptanoyl)-L-glutaminyl]-1,5,10-triazadecane trihydrochloride]									> 100	99.5	99.7	101	99.5	100	99.3
N=C(N)NCCCCCCC(=O)N[C@@H](CCCNC(=N)N)C(=O)NCCCCNCCCN [Compound 12, 10-[N--(7-guanidinoheptanoyl)-L-arginyl]-1,5,10-triazadecane trihydrochloride]	12.5	100	99.4	99.7	99.9	100	99.7	1.5							
N=C(N)NCCCCCCC(=O)N[C@@H](Cc1ccccc1)C(=O)NCCCCNCCCN [Compound 13, 10-[N--(7-guanidinoheptanoyl)-L-phenylalanyl]-1,5,10-triazadecane trihydrochloride]	> 100	99.8	99.5	99.9	100	101	100	2.8							
N=C(N)NCCCCCCC(=O)N[C@@H](Cc1cnc[nH]1)C(=O)NCCCCNCCCN [Compound 14, 10-[N--(7-guanidinoheptanoyl)-L-histidyl]-1,5,10-triazadecane trihydrochloride]	50	99.1	99	99.6	99.5	99.9	99.6	51							
C[C@@H](O)[C@H](NC(=O)CCCCCCNC(=N)N)C(=O)NCCCCNCCCN [Compound 15, 10-[N--(7-guanidinoheptanoyl)-L-threonyl]-1,5,10-triazadecane trihydrochloride]	100	99.2	99.8	99.1	100	99.6	100	180							
CC(=O)O[C@@H](CCCCNC(=N)N)CC(=O)NCC(=O)NCCCCNCCCN [Compound 16, 10-[N--(7-guanidino-3(S)--acetoxyheptanoyl)-glycyl-1,5,10-triazadecanetrihydrochloride]	> 100	99.9	99.5	99.6	99.2	99.6	99.6								
N=C(N)NCCCCCCCCC(=O)N[C@@H](CO)C(=O)NCCCCNCCCN [Compound 17, 10-[N--(9-guanidinononanoyl)-L-seryl]-1,5,10-triazadecane trihydrochloride]	6.25	99.6	100	99.8	99.7	100	99.3	11.3							
